Results reported in patent US11236084B2, “Substituted azaindoline derivatives as NIK inhibitors” (Janssen Pharmaceutica NV, priority 2017, dated 2022).
Like-named read-outs stand apart in the source and are kept apart here.

Target: recombinant human NF-kappaB-inducing kinase (NIK/MAP3K14) (Homo sapiens, UniProt Q99558)
Assay: Biological Assay B: inhibition of auto-phosphorylation of recombinant human NIK/MAP3K14 (AlphaScreen), performed at 2 locations
Assay type: biochemical
Details: averaged values
Experimental: Inhibition of Auto-Phosphorylation of Recombinant Human NF-kappaB-Inducing Kinase (NIK/MAP3K14) Activity (AlphaScreen®)
NIK/MAP3K14 auto-phosphorylation activity was measured using the AlphaScreen® (αscreen) format (Perkin Elmer). All compounds tested were dissolved in dimethyl sulfoxide (DMSO) and further dilutions were made in assay buffer. Final DMSO concentration was 1% (v/v) in assays. Assay buffer was 50 mM Tris pH 7.5 containing 1 mM EGTA (ethylene glycol tetraacetic acid), 1 mM DTT (dithiothreitol), 0.1 mM Na3VO4, 5 mM MgCl2, 0.01% Tween® 20. Assays were carried out in 384 well Alphaplates (Perkin Elmer). Incubations consisted of compound, 25 microM Adenosine-5′-triphosphate (ATP), and 0.2 nM NIK/MAP3K14. Incubations were initiated by addition of GST-tagged NIK/MAP3K14 enzyme, carried out for 1 h at 25° C. and terminated by addition of stop buffer containing anti-phospho-IKK Ser176/180 antibody. Protein A Acceptor and Glutathione-Donor beads were added before reading using an EnVision® Multilabel Plate Reader (Perkin Elmer). Signal obtained in the wells containing blank samples was subtracted from all other wells and IC50's were determined by fitting a sigmoidal curve to % inhibition of control versus Log10 compound concentration.
Assay B was performed at 2 different locations.
Data for the compounds of the invention in the above assays are provided in Table A (the values in Table are averaged values over all measurements on all batches of a compound; values as IC50 (nM)). (‘n.c.’ means not calculated: ‘Co.’ means compound)

[1] = location 2, AlphaScreen auto-phosphorylation, read-out: Assay B location 2 IC50
[2] = location 1, AlphaScreen auto-phosphorylation, read-out: Assay B location 1 IC50
[3] = location 1, NIK auto-phosphorylation, AlphaScreen, read-out: Assay B location 1 IC50
[4] = location 2, NIK auto-phosphorylation, AlphaScreen, read-out: Assay B location 2 IC50

recombinant human NF-kappaB-inducing kinase (NIK/MAP3K14), sequence (Q99558 whole entry): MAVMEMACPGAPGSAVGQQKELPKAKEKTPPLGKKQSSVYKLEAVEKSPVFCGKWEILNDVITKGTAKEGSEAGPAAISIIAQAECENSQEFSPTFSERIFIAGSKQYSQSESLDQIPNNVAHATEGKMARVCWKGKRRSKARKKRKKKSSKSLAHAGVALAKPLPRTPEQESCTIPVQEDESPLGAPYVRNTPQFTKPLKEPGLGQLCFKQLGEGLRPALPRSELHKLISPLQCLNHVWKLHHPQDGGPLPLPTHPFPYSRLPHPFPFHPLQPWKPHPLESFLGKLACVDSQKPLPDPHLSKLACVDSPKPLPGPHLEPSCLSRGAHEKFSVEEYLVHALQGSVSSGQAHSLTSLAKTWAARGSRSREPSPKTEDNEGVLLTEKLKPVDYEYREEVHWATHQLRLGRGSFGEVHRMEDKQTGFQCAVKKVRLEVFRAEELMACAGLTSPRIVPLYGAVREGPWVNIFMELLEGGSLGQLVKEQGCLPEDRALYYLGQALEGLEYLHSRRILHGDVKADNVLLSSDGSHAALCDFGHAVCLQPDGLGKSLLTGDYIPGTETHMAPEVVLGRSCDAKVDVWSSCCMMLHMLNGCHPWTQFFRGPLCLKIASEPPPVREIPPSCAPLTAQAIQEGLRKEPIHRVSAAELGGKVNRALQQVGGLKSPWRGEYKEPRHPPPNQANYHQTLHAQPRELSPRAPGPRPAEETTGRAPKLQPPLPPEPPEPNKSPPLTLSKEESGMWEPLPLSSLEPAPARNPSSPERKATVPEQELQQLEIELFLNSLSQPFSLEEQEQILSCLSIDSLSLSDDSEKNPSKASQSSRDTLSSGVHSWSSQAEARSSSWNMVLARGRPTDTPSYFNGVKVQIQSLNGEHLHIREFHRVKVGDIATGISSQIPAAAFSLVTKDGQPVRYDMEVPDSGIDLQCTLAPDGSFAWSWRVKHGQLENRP

| IC50 [1] | IC50 [2] | IC50 [3] | IC50 [4] | SMILES |
| --- | --- | --- | --- | --- |
| 26.3 nM |  |  |  | COc1cc(OC2CCN(C)CC2)ccc1Nc1nccc(-c2cnc3c(c2)C(C)(CO)CN3)n1 (stereo not drawn) [Compound 228] |
| 10 nM |  |  |  | COc1cc(N2CCOCC2)c(F)cc1Nc1nccc(-c2cnc3c(c2)C(C)(CO)CN3)n1 (stereo not drawn) [Compound 243] |
| 5.1 nM |  |  |  | CC1(CO)CNc2ncc(-c3ccnc(Nc4cc(C#N)ccc4Cl)n3)cc21 (stereo not drawn) [Compound 205] |
| 61.7 nM |  |  |  | CNC(=O)c1ccc(C)c(Nc2nccc(-c3cnc4c(c3)C(C)(CO)CN4)n2)c1 (stereo not drawn) [Compound 219] |
| 2.2 nM | 6.8 nM |  |  | COc1cc(N2CCN(C3CC3)CC2)c(Cl)cc1Nc1nccc(-c2cnc3c(c2)C(C)(CO)CN3)n1 (stereo not drawn) [Compound 309] |
| 1230 nM | 912 nM |  |  | COc1cccc(F)c1Nc1nccc(-c2cnc3c(c2)C(C)(CO)CN3)n1 (stereo not drawn) [Compound 250] |
| 15.1 nM |  |  |  | CCC1(CCO)CNc2ncc(-c3ccnc(Nc4ccc(C(=O)NC5CCOCC5)cc4OC)n3)cc21 (stereo not drawn) [Compound 158] |
| 2.4 nM | 4 nM |  |  | COc1cc(N2CCOCC2)c(Cl)cc1Nc1nccc(-c2cnc3c(c2)C(C)(CO)CN3)n1 (single isomer, unassigned) [Compound 6S] |
| 33.1 nM | 32.4 nM |  |  | CCN1CCC(Oc2ccc(Nc3nccc(-c4cnc5c(c4)C(C)(CO)CN5)n3)c(OC)c2)C1 (stereo not drawn) [Compound 233] |
|  |  | 24 nM |  | COc1cc(C(=O)NC2CCOCC2)ccc1Nc1ncc(Cl)c(-c2cnc3c(c2)C(C)(CO)CN3)n1 (single isomer, unassigned) [Compound 351] |
|  |  |  | 1.6 nM | CCN1CCN(Cc2cc(OC)c(Nc3nccc(-c4cnc5c(c4)C(C)(CO)CN5)n3)cc2Cl)CC1 (stereo not drawn) [Compound 337] |
| 1.8 nM | 5.3 nM |  |  | COc1cc(C(=O)N2CCC(OC)CC2)c(Cl)cc1Nc1nccc(-c2cnc3c(c2)C(C)(C)CN3)n1 [Compound 9] |
|  |  | 33.9 nM |  | COc1cc(C(=O)NC2CCOCC2)ccc1Nc1ncc(F)c(-c2cnc3c(c2)C(C)(CO)CN3)n1 (single isomer, unassigned) [Compound 352] |
| 15.1 nM |  |  |  | COc1cc(OCCN2CCOCC2)ccc1Nc1nccc(-c2cnc3c(c2)C(C)(CO)CN3)n1 (stereo not drawn) [Compound 218] |
| 6.9 nM | 10.2 nM |  |  | CC1(CO)CNc2ncc(-c3ccnc(Nc4cc(C#N)c(N5CCOCC5)cc4Cl)n3)cc21 (stereo not drawn) [Compound 364] |
| 6760 nM | > 10000 nM |  |  | COc1cccc(Cl)c1Nc1nccc(-c2cnc3c(c2)C(C)(CO)CN3)n1 (stereo not drawn) [Compound 251] |
| 3.7 nM | 7.8 nM |  |  | Cc1cc(N2CCOCC2)c(Cl)cc1Nc1nccc(-c2cnc3c(c2)C(C)(CO)CN3)n1 (stereo not drawn) [Compound 361] |
| ~3090 nM | 1860 nM |  |  | COc1ccc(N2CCOCC2)cc1Nc1nccc(-c2cnc3c(c2)C(C)(CO)CN3)n1 (stereo not drawn) [Compound 241] |
| 3.4 nM | 3 nM |  |  | Cc1cc(N2CCOCC2)c(Cl)cc1Nc1nccc(-c2cnc3c(c2)C(C)(CO)CN3)n1 (single isomer, unassigned) [Compound 257] |
| 3.6 nM |  |  |  | COc1cccc(Nc2nccc(-c3cnc4c(c3)C(C)(CO)CN4)n2)c1 (stereo not drawn) [Compound 168] |
| 26.9 nM |  |  |  | COc1cc(-n2cnc(C)c2)ccc1Nc1nccc(-c2cnc3c(c2)C(C)(CO)CN3)n1 (stereo not drawn) [Compound 202] |
| 3.6 nM | 6.9 nM |  |  | CC1(CO)CNc2ncc(-c3ccnc(Nc4cc(Cl)c(N5CCOCC5)cc4Cl)n3)cc21 (stereo not drawn) [Compound 362] |
| 110 nM |  |  |  | COc1ccc(C(C)C)cc1Nc1nccc(-c2cnc3c(c2)C(C)(CO)CN3)n1 (stereo not drawn) [Compound 209] |
| 30.9 nM |  |  |  | COc1cc(-c2ccnn2C)ccc1Nc1nccc(-c2cnc3c(c2)C(C)(CO)CN3)n1 (stereo not drawn) [Compound 203] |
| 38.9 nM | 61.7 nM |  |  | [2H]C([2H])([2H])c1ccccc1Nc1nccc(-c2cnc3c(c2)C(C)(CO)CN3)n1 (stereo not drawn) [Compound 234] |

| IC50 [1] | IC50 [2] | IC50 [3] | IC50 [4] | SMILES |
| --- | --- | --- | --- | --- |
| 0.7 nM | 6.2 nM |  |  | COc1cc(N)c(Cl)cc1Nc1nccc(-c2cnc3c(c2)C(C)(CO)CN3)n1 (stereo not drawn) [Compound 11] |
| 12.9 nM |  |  |  | COc1cc(N2CCC(C#N)CC2)ccc1Nc1nccc(-c2cnc3c(c2)C(C)(CO)CN3)n1 (stereo not drawn) [Compound 215] |
| 1.7 nM | 3.8 nM |  |  | CCN1CCN(c2cc(OC)c(Nc3nccc(-c4cnc5c(c4)C(C)(C)CN5)n3)cc2Cl)CC1 [Compound 329] |
| 1.5 nM | 4.9 nM |  |  | CCN1CCN(c2cc(OC)c(Nc3nccc(-c4cnc5c(c4)C(C)(CO)CN5)n3)cc2C)CC1 (stereo not drawn) [Compound 318] |
| 12 nM |  |  |  | COc1cccc(Nc2nccc(-c3cnc4c(c3)C(C)(CO)CN4)n2)c1C (stereo not drawn) [Compound 214] |
| 11.2 nM |  |  |  | CC1(CO)CNc2ncc(-c3ccnc(Nc4cc(F)ccc4Cl)n3)cc21 (stereo not drawn) [Compound 197] |
| 2.6 nM | 4 nM |  |  | CCN1CCN(c2cc(OC)c(Nc3nccc(-c4cnc5c(c4)C(C)(CO)CN5)n3)cc2F)CC1 (stereo not drawn) [Compound 275] |
| 4.1 nM | 7.4 nM |  |  | COc1cc(C#N)c(C)c(Nc2nccc(-c3cnc4c(c3)C(C)(CO)CN4)n2)c1 (stereo not drawn) [Compound 226] |
| 13.8 nM | 77.6 nM |  |  | COc1cc(N2CCOCC2)c(F)cc1Nc1nccc(-c2cnc3c(c2)C(C)(C)CN3)n1 [Compound 282] |
| 12.9 nM | 22.9 nM |  |  | Cc1cc(N2CCOCC2)c(F)cc1Nc1nccc(-c2cnc3c(c2)C(C)(CO)CN3)n1 (stereo not drawn) [Compound 366] |
| 2.3 nM | 6.3 nM |  |  | COc1cc(N2CCC(OC)CC2)c(Cl)cc1Nc1nccc(-c2cnc3c(c2)C(C)(CO)CN3)n1 (stereo not drawn) [Compound 327] |
| 1 nM | 2.7 nM |  |  | COc1cc(OCCN2CCN(C)CC2)c(Cl)cc1Nc1nccc(-c2cnc3c(c2)C(C)(CO)CN3)n1 (stereo not drawn) [Compound 320] |
| 10 nM |  |  |  | COc1ccc(C(F)(F)F)cc1Nc1nccc(-c2cnc3c(c2)C(C)(CO)CN3)n1 (stereo not drawn) [Compound 173] |
| 7.2 nM | 8.3 nM |  |  | CC1(CO)CNc2ncc(-c3ccnc(Nc4cc(F)c(N5CCOCC5)cc4Cl)n3)cc21 (single isomer, unassigned) [Compound 261] |
| 22.4 nM |  |  |  | Cc1ccccc1Nc1nccc(-c2cnc3c(c2)C(C)(CO)CN3)n1 (stereo not drawn) [Compound 179] |
| 38 nM |  |  |  | CCc1ccc(OC)c(Nc2nccc(-c3cnc4c(c3)C(C)(CO)CN4)n2)c1 (stereo not drawn) [Compound 206] |
| 355 nM | 389 nM |  |  | COc1ccc(-c2cnn(C)c2)cc1Nc1nccc(-c2cnc3c(c2)C(C)(CO)CN3)n1 (stereo not drawn) [Compound 239] |
| 12.6 nM |  |  |  | CCC1(CCO)CNc2ncc(-c3ccnc(Nc4ccc(C(=O)N5CCC(OC)CC5)cc4OC)n3)cc21 (stereo not drawn) [Compound 159] |
| 12.6 nM |  |  |  | CC1(CO)CNc2ncc(-c3ccnc(Nc4ccccc4Br)n3)cc21 (stereo not drawn) [Compound 176] |
| 4 nM |  |  |  | CC1(CO)CNc2ncc(-c3ccnc(Nc4cc(Cl)ccc4Cl)n3)cc21 (stereo not drawn) [Compound 196] |
|  |  |  | 3.6 nM | COc1cc(N2CCC(O)CC2)c(Cl)cc1Nc1nccc(-c2cnc3c(c2)C(C)(C)CN3)n1 [Compound 336] |
| 10.2 nM | 13.2 nM |  |  | COc1cccc(Nc2nccc(-c3cnc4c(c3)C(C)(CO)CN4)n2)c1Cl (stereo not drawn) [Compound 225] |
| 7.2 nM | 10.2 nM |  |  | Cc1cc(N2CCOCC2)c(F)cc1Nc1nccc(-c2cnc3c(c2)C(C)(CO)CN3)n1 (single isomer, unassigned) [Compound 255] |
| 10 nM | 12 nM |  |  | CCOC1CN(c2cc(OC)c(Nc3nccc(-c4cnc5c(c4)C(C)(CO)CN5)n3)cc2Cl)C1 (stereo not drawn) [Compound 357] |
